In patent US8288342B2, “Methods for treating vasomotor symptoms in castrated prostatic cancer patients with low dose cyproterone acetate” (priority 2008, dated 2012):

Assays:
[1] = system: hot flashes following surgical or medical castration of prostate cancer patients; experiment: Randomized, multicenter, placebo-controlled Phase 2 trial of CPA 5, 15, 25 mg/day: hot flash efficacy; assay type: in vivo, human; conditions: for Reduction in average severity of moderate to severe hot flashes compared to placebo (positive) / Reduction in weekly average severity of hot flashes compared to placebo (Table 7 analysis, positive) / LS Mean Change in Weekly Average Severity of All Hot Flashes / LS Mean Change in Weekly Average Severity of Moderate to Severe Hot Flashes: 4-point scale; for Fewer weekly moderate to severe hot flashes compared to placebo (reduction, positive): baseline to end-of-treatment
Source text: The inclusion criteria included male (>18 years) prostate cancer patients who have undergone bilateral orchiectomy or have used or are using LHRH analogue drug([…]®, Aberelix®), and have complained of bothersome hot flashes as defined by the occurrence of at least 3 moderate to severe hot flashes per day or 21 per week at baseline. Hot flashes were present for at least 1 month prior to study entry. […] A total of 121 clinical sites in the United States and Canada participated in this Phase 2 study with 77 sites enrolling at least one subject. The overall study duration for each subject was approximately 19 weeks, which included a screening period of up to 4 weeks, a one-week placebo run-in period, a 12-week double-blind period, and a follow-up telephone call two weeks after the last dose of study medication. After providing informed consent on the first day of the screening period, all subjects had medical and hot flash history recorded, a physical examination, a chest x-ray and Doppler to assess known thromboembolic risk factors, an ECG to evaluate cardiac risks, and clinical laboratory evaluations. Once all results of tests conducted during the screening period were obtained, subjects who met all of the inclusion criteria and none of the exclusion criteria were eligible to enter the one-week, single-blind, placebo run-in period. […] CPA 5, 15, or 25 mg/day or placebo. After beginning study medication, subjects returned for study visits at weeks 2, 4, 8, and 12. Two weeks after the final treatment visit, a telephone follow-up call was conducted to record and evaluate adverse events (“AE”s) since the last study visit. Each subject received one tablet daily, which was administered orally. All tablets were blinded and identical in appearance. The formulation used in this study was an immediate release product containing 5, 15, or 25 mg of CPA. The CPA tablets are described in Example 1. The dosage form for the CPA used in this study was an identical, blind, modified oval, scored, immediate release oral tablet for each strength, consisting of cyproterone acetate, lactose, microcrystalline cellulose, crospovidone, sodium lauryl sulfate, silicon dioxide, magnesium stearate, and stearic acid. Placebo tablets included the same constituents but without CPA and were identical in appearance to the active tablets. During the single-blind placebo run-in period, subjects received one medication bottle containing a one week+2 day supply (9 tablets total) of single-blind placebo tablets and a copy of the Subject Information Sheet. Subjects were instructed to take one tablet each morning by mouth, preferably with a meal, at approximately the same time each day. Subjects were not made aware that they were receiving placebo. Following randomization at Visit 2, all enrolled and eligible subjects were randomized equally to one of four treatment groups (CPA 5, 15, 25 mg, or placebo) and received the study medication on the same day. At treatment visits 0, 4, and 8 weeks following initiation, each subject received one medication bottle containing a one-month supply+7 (35 tablets total) of double-blind […] tablets and a copy of the Subject Information Sheet. Subjects were instructed to take one tablet each morning by mouth, preferably with a meal, at approximately the same time each day. This study was designed to evaluate three doses of CPA (5 mg, 15 mg, and 25 mg) for the treatment of hot flashes in prostate cancer patients. Observation of a reduction in the frequency and severity of hot flashes was considered a reasonable and reliable indicator of the efficacy of active treatment. The primary measure of efficacy was the change in weekly frequency and weekly average severity of moderate to severe hot flashes from the placebo run-in period to the final week of treatment. […]

[2] = Same Phase 2 trial: cyproterone acetate and 15β-OH cyproterone acetate concentrations by treatment and visit; assay type: in vivo, human; conditions: 5 mg/day, 15 mg/day and 25 mg/day
Method: FIG. 3 depicts schematically the analysis of cyproterone acetate and 15β-OH cyproterone acetate (a breakdown product of cyproterone acetate that contributes to the effectiveness of the drug) concentration in the patients who were treated.

[3] = system: hot flashes in castrated prostatic cancer patients; experiment: Prior study of 50 mg and 100 mg CPA: hot flash efficacy; assay type: in vivo, human; conditions: N 236
Method: The results of this study were compared with results from a prior study in which the efficacy of 50 mg and 100 mg of CPA was investigated. Efficacy data for the 50 mg and 100 mg studies showing a reduction in average daily number of moderate to severe hot flashes, and a reduction in average severity of hot flashes is shown in FIGS. 6 and 7, respectively. A comparison of the percent of patients with complete disappearance of all hot flashes at 12 weeks of treatment across studies is shown in Table 10.

[4] = system: post-orchiectomy hot flashes in prostate cancer subjects; conditions: CPA 300 mg daily, 3 weeks, 12 post-orchiectomy subjects; cited from earlier work
[5] = system: hot flashes and outbreaks of sweating after orchiectomy; conditions: CPA 150 mg daily, cited from earlier work
[6] = system: quality of life of prostate cancer patients; conditions: 367 evaluable patients; oral and i.m., doses varied; cited from earlier work
[7] = all three treatment groups (5, 15, 25 mg/day)

For `CC(=O)O[C@]1(C(C)=O)CC[C@H]2[C@@H]3C=C(Cl)C4=CC(=O)[C@@H]5C[C@@H]5[C@]4(C)[C@H]3CC[C@@]21C` [CPA, cyproterone acetate], the “% With Complete Disappearance of All Hot Flashes at 12 Weeks/End-of-Treatment” value ([1]; CPA 5 mg, N 80) was 27.5%, the “Proportion of subjects with total elimination of moderate to severe hot flashes (Yes)” value (“Proportion of subjects … (Yes)” below) ([1]; CPA 5 mg/day) was 27.27% and the “Proportion of subjects without total elimination of moderate to severe hot flashes (No)” value ([1]; CPA 5 mg/day) was 72.73%. For the same compound, the “Reduction in average frequency of all hot flashes compared to placebo (positive)” value (“Reduction in average frequency” below) ([1]; CPA 5 mg/day) was 27.73 units, the “Subjects without total elimination of moderate to severe hot flashes (No), number” value ([1]; CPA 5 mg/day) was 56 and the “LS Mean Change in Total Weekly Moderate to Severe Hot Flash Frequency” value (from here on “LS Mean Change in Total Weekly Moderate”) ([1]; CPA 5 mg/day oral, Baseline (Day 0) to End-of-Treatment (Day 84)) was −40.47. The “Subjects with total elimination of moderate to severe hot flashes (Yes), number” value (“Subjects with total elimination … number” below) ([1]; CPA 5 mg/day, out of 77) was 21, the “Reduction in average severity of moderate to severe hot flashes compared to placebo (positive)” value (from here on “Reduction in average severity”) ([1]; CPA 5 mg/day) was 0.86 units and the “Reduction in weekly average severity of hot flashes compared to placebo (Table 7 analysis, positive)” value (“Reduction in weekly average severity” below) ([1]; CPA 5 mg/day) was 0.60 units. The “Difference from placebo in change of Total Weekly Moderate to Severe Hot Flash Frequency” value ([1]; CPA 5 mg/day, Day 0 to Day 84) was −23.08, the “Difference from placebo in change of Weekly Average Frequency of All Hot Flashes” value ([1]; CPA 5 mg/day, Day 0 to Day 84) was −27.73 and the “Difference from placebo in change of Weekly Average Severity of All Hot Flashes” value ([1]; CPA 5 mg/day, Day 0 to Day 84) was −0.6. The “Difference from placebo in change of Weekly Average Severity of Moderate to Severe Hot Flashes” value ([1]; CPA 5 mg/day, Day 0 to Day 84) was −0.86, the “LS Mean Change in Weekly Average Frequency of All Hot Flashes” value ([1]; CPA 5 mg/day, Day 0 to Day 84) was −50.67 and the “LS Mean Change in Weekly Average Severity of All Hot Flashes” value ([1]; CPA 5 mg/day, Day 0 to Day 84) was −0.76. The “LS Mean Change in Weekly Average Severity of Moderate to Severe Hot Flashes” value (“LS Mean Change … to Severe Hot Flashes” below) ([1]; CPA 5 mg/day, Day 0 to Day 84) was −1.06, the “Fewer weekly moderate to severe hot flashes compared to placebo (reduction, positive)” value (“Fewer weekly moderate … (reduction, positive)” below) ([1]; CPA 5 mg/day) was 23.08 and the “% With Complete Disappearance of All Hot Flashes at 12 Weeks/End-of-Treatment” value ([1]; CPA 15 mg, N 96) was 32.3%. For the same compound, the “Proportion of subjects … (Yes)” value ([1]; CPA 15 mg/day) was 32.63%, the “Proportion of subjects without total elimination of moderate to severe hot flashes (No)” value ([1]; CPA 15 mg/day) was 67.37% and the “Reduction in average frequency” value ([1]; CPA 15 mg/day) was 32.69 units. For the same compound, the “Subjects without total elimination of moderate to severe hot flashes (No), number” value ([1]; CPA 15 mg/day) was 64, the “LS Mean Change in Total Weekly Moderate” value ([1]; CPA 15 mg/day oral, Day 0 to Day 84) was −45.05 and the “Subjects with total elimination … number” value ([1]; CPA 15 mg/day, out of 95) was 31. The “Reduction in average severity” value ([1]; CPA 15 mg/day) was 1.13 units, the “Reduction in weekly average severity” value ([1]; CPA 15 mg/day) was 0.78 units and the “Difference from placebo in change of Total Weekly Moderate to Severe Hot Flash Frequency” value ([1]; CPA 15 mg/day, Day 0 to Day 84) was −27.66. The “Difference from placebo in change of Weekly Average Frequency of All Hot Flashes” value ([1]; CPA 15 mg/day, Day 0 to Day 84) was −32.69, the “Difference from placebo in change of Weekly Average Severity of All Hot Flashes” value ([1]; CPA 15 mg/day, Day 0 to Day 84) was −0.78 and the “Difference from placebo in change of Weekly Average Severity of Moderate to Severe Hot Flashes” value ([1]; CPA 15 mg/day, Day 0 to Day 84) was −1.13. The “LS Mean Change in Weekly Average Frequency of All Hot Flashes” value ([1]; CPA 15 mg/day, Day 0 to Day 84) was −55.63, the “LS Mean Change in Weekly Average Severity of All Hot Flashes” value ([1]; CPA 15 mg/day, Day 0 to Day 84) was −0.94 and the “LS Mean Change … to Severe Hot Flashes” value ([1]; CPA 15 mg/day, Day 0 to Day 84) was −1.33. For the same compound, the “Fewer weekly moderate … (reduction, positive)” value ([1]; CPA 15 mg/day) was 27.66, the “% With Complete Disappearance of All Hot Flashes at 12 Weeks/End-of-Treatment” value ([1]; CPA 25 mg, N 86) was 36.1% and the “Proportion of subjects … (Yes)” value ([1]; CPA 25 mg/day) was 36.05%. For the same compound, the “Proportion of subjects without total elimination of moderate to severe hot flashes (No)” value ([1]; CPA 25 mg/day) was 63.95%, the “Reduction in average frequency” value ([1]; CPA 25 mg/day) was 33.93 units and the “Subjects without total elimination of moderate to severe hot flashes (No), number” value ([1]; CPA 25 mg/day) was 55. The “LS Mean Change in Total Weekly Moderate” value ([1]; CPA 25 mg/day oral, Day 0 to Day 84) was −46.14, the “Subjects with total elimination … number” value ([1]; CPA 25 mg/day, out of 86) was 31 and the “Reduction in average severity” value ([1]; CPA 25 mg/day) was 0.94 units. For the same compound, the “Reduction in weekly average severity” value ([1]; CPA 25 mg/day) was 0.77 units, the “Difference from placebo in change of Total Weekly Moderate to Severe Hot Flash Frequency” value ([1]; CPA 25 mg/day, Day 0 to Day 84) was −28.75 and the “Difference from placebo in change of Weekly Average Frequency of All Hot Flashes” value ([1]; CPA 25 mg/day, Day 0 to Day 84) was −33.93. For the same compound, the “Difference from placebo in change of Weekly Average Severity of All Hot Flashes” value ([1]; CPA 25 mg/day, Day 0 to Day 84) was −0.77, the “Difference from placebo in change of Weekly Average Severity of Moderate to Severe Hot Flashes” value ([1]; CPA 25 mg/day, Day 0 to Day 84) was −0.94 and the “LS Mean Change in Weekly Average Frequency of All Hot Flashes” value ([1]; CPA 25 mg/day, Day 0 to Day 84) was −56.87. For the same compound, the “LS Mean Change in Weekly Average Severity of All Hot Flashes” value ([1]; CPA 25 mg/day, Day 0 to Day 84) was −0.93, the “LS Mean Change … to Severe Hot Flashes” value ([1]; CPA 25 mg/day, Day 0 to Day 84) was −1.14 and the “Fewer weekly moderate … (reduction, positive)” value ([1]; CPA 25 mg/day) was 28.75. For the same compound, the “Treating all hot flashes, including mild, moderate, and severe” value ([1]; all three doses (5, 15, 25 mg/day)) was “effective”, the “Total weekly frequency of moderate to severe hot flashes over placebo” value [1, 7] was “statistically significant reduction” and the “Weekly average frequency of all hot flashes over placebo” value [1, 7] was “statistically significant reduction”. For the same compound, the “Weekly average severity of all hot flashes over placebo” value [1, 7] was “statistically significant reduction”, the “Weekly average severity of moderate to severe hot flashes over placebo” value [1, 7] was “statistically significant reduction” and the “Cyproterone acetate and 15β-OH cyproterone acetate concentration in treated patients” value [2] was “dose proportional response”. For the same compound, the “% With Complete Disappearance of All Hot Flashes at 12 Weeks/End-of-Treatment” value ([3]; CPA 50 mg) was 38.5%, the “% With Complete Disappearance of All Hot Flashes at 12 Weeks/End-of-Treatment” value ([3]; CPA 100 mg) was 46.0% and the “Frequency of hot flashes” value [4] was “significantly reduced”. For the same compound, the “Frequency and severity in subjects who continued to experience hot flashes or sweating” value [5] was “decreased”, the “Subjects with outbreaks of sweating” value ([5]; placebo 47%) was 24% and the “Subjects experiencing hot flashes” value ([5]; placebo 61%) was 33%. For the same compound, the “Evaluable patients with general improvement in subjective assessment of quality of life” value [6] was 70%.
